Results taken from patent US12448399B2, “Cereblon-based KRAS degrading PROTACs and uses related thereto” (Arvinas Operations, Inc., priority 2023, dated 2025).

Target: T1, KRas-G12D (Homo sapiens, UniProt P01116, G12D)
T1 construct: insert the HiBiT tag onto the N-terminus of one or more of the endogenous KRas alleles; host or cells: AsPC-1 HiBiT-KRasG12D knock-in clone (one tagged allele, two untagged KRasG12D alleles)
Test: HiBiT Degradation Assay (G12D), AsPC-1 HiBiT-KRasG12D cells, 24 hr
Format: cell-based
Details: for DC50: AsPC-1 cells; for Dmax: ASPC1, AsPC-1 cells, maximum degradation observed
Summary of the method: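 Degradation was read after 24 hr compound exposure (0.5% DMSO, 37° C) by Nano-Glo HiBiT lytic luminescence in AsPC-1 cells carrying a HiBiT tag on one of three KRasG12D alleles. Signal relative to DMSO gave DC50 and Dmax by 4-parameter fit; alamar blue fluorescence monitored cytotoxicity.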

T1 sequence (P01116 1-188 isoform P01116-2 G12D): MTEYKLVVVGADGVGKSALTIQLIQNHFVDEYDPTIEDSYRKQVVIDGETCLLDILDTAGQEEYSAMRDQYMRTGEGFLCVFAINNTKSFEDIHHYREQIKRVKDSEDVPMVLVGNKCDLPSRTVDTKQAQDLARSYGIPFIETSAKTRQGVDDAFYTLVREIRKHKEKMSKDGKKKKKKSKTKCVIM

Row | SMILES | DC50 [µM] | Dmax [%]
1 | C#Cc1c(F)ccc2cc(O)cc(-c3ncc4c(N5CC6CCC(C5)N6)nc(OC[C@@H]5CC[C@@H](CN6CCN(CC7CCN(c8ccc9c(c8)n(C(C)C)c(=O)n9C8CCC(=O)NC8=O)CC7)CC6)N5C)nc4c3F)c12 (stereo partly drawn) [Compound 211, 3-(5-{4-[(4-{[(2S,5S)-5-{[(4-{3,8-diazabicyclo[3.2.1]octan-3-yl}-7-(8-ethynyl-7-fluoro-3-hydroxynaphthalen-1-yl)-8-fluoropyrido[4,3-d]pyrimidin-2-yl)oxy]methyl}-1-methylpyrrolidin-2-yl]methyl}piperazin-1-yl)methyl]piperidin-1-yl}-2-oxo-3-(propan-2-yl)-2,3-dihydro-1H-1,3-benzodiazol-1-yl)piperidine-2,6-dione] | < 5.1 | –
2 | CCc1cccc2cc(O)cc(-c3ncc4c(N5CC6CCC(C5)N6)nc(OCCN5CCN(c6ccc7c(c6)C(=O)N(C6CCC(=O)NC6=O)C7=O)CC5)nc4c3F)c12 (stereo not drawn) [Compound 40] | > 1 | ≤ 25
3 | C#Cc1c(F)ccc2cc(O)cc(-c3ncc4c(N5CC6CCC(C5)N6)nc(OC[C@@H]5C[C@@H](OC6CCN(CC7CCN(c8cc(C)c9c(c8F)CN(C8CCC(=O)NC8=O)C9=O)CC7)CC6)CN5C)nc4c3F)c12 (stereo partly drawn) [Compound 151, 3-(5-{4-[(4-{[(3R,5S)-5-{[(4-{3,8-diazabicyclo[3.2.1]octan-3-yl}-7-(8-ethynyl-7-fluoro-3-hydroxynaphthalen-1-yl)-8-fluoropyrido[4,3-d]pyrimidin-2-yl)oxy]methyl}-1-methylpyrrolidin-3-yl]oxy}piperidin-1-yl)methyl]piperidin-1-yl}-4-fluoro-7-methyl-1-oxo-2,3-dihydro-1H-isoindol-2-yl)piperidine-2,6-dione] | < 5.1 | > 70
4 | CCc1cccc2cc(O)cc(-c3ncc4c(N5CC6CCC(C5)N6C)nc(OC[C@@]56CCCN5[C@H](COC(=O)N5CCN(c7cccc8c7CN(C7CCC(=O)NC7=O)C8=O)CC5)CC6)nc4c3F)c12 (stereo partly drawn) [Compound 49, [(3S,8S)-8-[[7-(8-ethyl-3-hydroxy-1-naphthyl)-8-fluoro-4-(8-methyl-3,8-diazabicyclo[3.2.1]octan-3-yl)pyrido[4,3-d]pyrimidin-2-yl]oxymethyl]-1,2,3,5,6,7-hexahydropyrrolizin-3-yl]methyl 4-[2-(2,6-dioxo-3-piperidyl)-1-oxo-isoindolin-4-yl]piperazine-1-carboxylate] | > 1 | –
5 | C#Cc1c(F)ccc2cc(O)cc(-c3ncc4c(N5CC6CCC(C5)N6)nc(OCCN5CCC(OC6CCN(CC7CCN(c8ccc9c(c8F)CN(C8CCC(=O)NC8=O)C9=O)CC7)CC6)CC5)nc4c3F)c12 (stereo not drawn) [Compound 106, 3-{5-[4-({4-[(1-{2-[(4-{3,8-diazabicyclo[3.2.1]octan-3-yl}-7-(8-ethynyl-7-fluoro-3-hydroxynaphthalen-1-yl)-8-fluoropyrido[4,3-d]pyrimidin-2-yl)oxy]ethyl}piperidin-4-yl)oxy]piperidin-1-yl}methyl)piperidin-1-yl]-4-fluoro-1-oxo-2,3-dihydro-1H-isoindol-2-yl}piperidine-2,6-dione] | < 5.1 | > 70
6 | C#Cc1c(F)ccc2cc(O)cc(-c3ncc4c(N5CC6CCC(C5)N6)nc(OCCN5CCC(CN6CCN(CC7CCN(c8ccc9c(c8F)CN(C8CCC(=O)NC8=O)C9=O)CC7)CC6)CC5)nc4c3F)c12 (stereo not drawn) [Compound 101, 3-[5-[4-[[4-[[1-[2-[4-(3,8-diazabicyclo[3.2.1]octan-3-yl)-7-(8-ethynyl-7-fluoro-3-hydroxy-1-naphthyl)-8-fluoro-pyrido[4,3-d]pyrimidin-2-yl]oxyethyl]-4-piperidyl]methyl]piperazin-1-yl]methyl]-1-piperidyl]-4-fluoro-1-oxo-isoindolin-2-yl]piperidine-2,6-dione] | < 5.1 | > 70
7 | C#Cc1c(F)ccc2cccc(-c3ncc4c(N5CC6CCC(C5)N6)nc(OC[C@@]56CCCN5[C@H](CN5CCN(CC7CCN(c8ccc9c(c8)n(C)c(=O)n9C8CCC(=O)NC8=O)CC7)CC5)CC6)nc4c3F)c12 (stereo partly drawn) [Compound 234] | < 5.1 | > 70
8 | C#Cc1c(F)ccc2cccc(-c3ncc4c(N5CC6CCC(C5)N6)nc(OC[C@@]56CCCN5[C@H](CN5CCN(c7ccc8c(c7)CN(C7CCC(=O)NC7=O)C8=O)CC5)CC6)nc4c3F)c12 (stereo partly drawn) [Compound 146] | 0.25 to 1 | –
9 | CCc1cccc2cc(O)cc(-c3ncc4c(N5CC6CCC(C5)N6)nc(OCCN5CCC(CC6CCN(CC7CCN(c8cccc9c8C(=O)N(C8CCC(=O)NC8=O)C9=O)CC7)CC6)CC5)nc4c3F)c12 (stereo not drawn) [Compound 57, 4-[4-[[4-[[1-[2-[4-(3,8-diazabicyclo[3.2.1]octan-3-yl)-7-(8-ethyl-3-hydroxy-1-naphthyl)-8-fluoro-pyrido[4,3-d]pyrimidin-2-yl]oxyethyl]-4-piperidyl]methyl]-1-piperidyl]methyl]-1-piperidyl]-2-(2,6-dioxo-3-piperidyl)isoindoline-1,3-dione] | 0.1 to 5.25 | –
10 | C#Cc1c(F)ccc2cc(O)cc(-c3ncc4c(N5CC6CCC(C5)N6)nc(OC[C@]56CCCN5[C@H](CN5CCN(CC7CCN(c8ccc9c(c8)CN(C8CCC(=O)NC8=O)C9=O)CC7)CC5)CC6)nc4c3F)c12 (stereo partly drawn) [Compound 84, 3-[5-[4-[[4-[[(3S,8R)-8-[[4-(3,8-diazabicyclo[3.2.1]octan-3-yl)-7-(8-ethynyl-7-fluoro-3-hydroxy-1-naphthyl)-8-fluoro-pyrido[4,3-d]pyrimidin-2-yl]oxymethyl]-1,2,3,5,6,7-hexahydropyrrolizin-3-yl]methyl]piperazin-1-yl]methyl]-1-piperidyl]-1-oxo-isoindolin-2-yl]piperidine-2,6-dione] | < 5.1 | > 70
11 | CCc1c(F)ccc2cc(O)cc(-c3ncc4c(N5CC6CCC(C5)N6)nc(OCCN5CCC(CC6CCN(CC7CCN(c8cccc9c8n(C)c(=O)n9C8CCC(=O)NC8=O)CC7)CC6)CC5)nc4c3F)c12 (stereo not drawn) [Compound 172, 3-{4-[4-({4-[(1-{2-[(4-{3,8-diazabicyclo[3.2.1]octan-3-yl}-7-(8-ethyl-7-fluoro-3-hydroxynaphthalen-1-yl)-8-fluoropyrido[4,3-d]pyrimidin-2-yl)oxy]ethyl}piperidin-4-yl)methyl]piperidin-1-yl}methyl)piperidin-1-yl]-3-methyl-2-oxo-2,3-dihydro-1H-1,3-benzodiazol-1-yl}piperidine-2,6-dione] | < 5.1 | > 70
12 | C#Cc1c(F)ccc2cc(O)cc(-c3ccc4c(N5CC6CCC(C5)N6)nc(OCCN5CCC(CC6CCN(CC7CCN(c8ccc9c(c8F)CN(C8CCC(=O)NC8=O)C9=O)CC7)CC6)CC5)nc4c3F)c12 (stereo not drawn) [Compound 152] | < 5.1 | –
13 | C#Cc1c(F)ccc2cc(O)cc(-c3ncc4c(N5CC6CCC(C5)N6)nc(OCC5(CN6CCN(CC7CCN(c8ccc9c(c8Cl)CN(C8CCC(=O)NC8=O)C9=O)CC7)CC6)CC5)nc4c3F)c12 (stereo not drawn) [Compound 186, 3-{4-chloro-5-[4-({4-[(1-{[(4-{3,8-diazabicyclo[3.2.1]octan-3-yl}-7-(8-ethynyl-7-fluoro-3-hydroxynaphthalen-1-yl)-8-fluoropyrido[4,3-d]pyrimidin-2-yl)oxy]methyl}cyclopropyl)methyl]piperazin-1-yl}methyl)piperidin-1-yl]-1-oxo-2,3-dihydro-1H-isoindol-2-yl}piperidine-2,6-dione] | < 5.1 | > 70
14 | CCc1cccc2cc(O)cc(-c3ncc4c(N5CC6CCC(C5)N6)nc(OC[C@]56CCCN5[C@@H](COC(=O)N5CCN(c7ccc8c(c7)CN(C7CCC(=O)N(C)C7=O)C8=O)CC5)CC6)nc4c3F)c12 (stereo partly drawn) [Compound 53, [(3R,8R)-8-[[4-(3,8-diazabicyclo[3.2.1]octan-3-yl)-7-(8-ethyl-3-hydroxy-1-naphthyl)-8-fluoro-pyrido[4,3-d]pyrimidin-2-yl]oxymethyl]-1,2,3,5,6,7-hexahydropyrrolizin-3-yl]methyl4-[2-(1-methyl-2,6-dioxo-3-piperidyl)-1-oxo-isoindolin-5-yl]piperazine-1-carboxylate] | 0.1 to 5.25 | –
15 | CCc1cccc2cc(O)cc(-c3ncc4c(N5CC6CCC(C5)N6)nc(OC[C@@]56CCCN5[C@H](COC(=O)N5CCN(c7cccc8c7CN(C7CCC(=O)NC7=O)C8=O)CC5)CC6)nc4c3F)c12 (stereo partly drawn) [Compound 60, [(3S,8S)-8-[[4-(3,8-diazabicyclo[3.2.1]octan-3-yl)-7-(8-ethyl-3-hydroxy-1-naphthyl)-8-fluoro-pyrido[4,3-d]pyrimidin-2-yl]oxymethyl]-1,2,3,5,6,7-hexahydropyrrolizin-3-yl]methyl 4-[2-(2,6-dioxo-3-piperidyl)-1-oxo-isoindolin-4-yl]piperazine-1-carboxylate] | 0.1 to 5.25 | –
16 | C#Cc1c(F)ccc2cc(O)cc(-c3ncc4c(N5CC6CCC(C5)N6)nc(OCCN5CCC(CC6CCN(CC7CCN(c8ccc9c(c8)CN([C@@H]8CCC(=O)NC8=O)C9=O)CC7)CC6)CC5)nc4c3F)c12 [Compound 216, (3R)-3-{5-[4-({4-[(1-{2-[(4-{3,8-diazabicyclo[3.2.1]octan-3-yl}-7-(8-ethynyl-7-fluoro-3-hydroxynaphthalen-1-yl)-8-fluoropyrido[4,3-d]pyrimidin-2-yl)oxy]ethyl}piperidin-4-yl)methyl]piperidin-1-yl}methyl)piperidin-1-yl]-1-oxo-2,3-dihydro-1H-isoindol-2-yl}piperidine-2,6-dione] | < 5.1 | > 70
17 | C#Cc1c(F)ccc2cc(O)cc(-c3ncc4c(N5CC6CCC(C5)N6)nc(OCCN5CCC(F)(CC6CCN(CC7CCN(c8ccc9c(c8)CN(C8CCC(=O)NC8=O)C9=O)CC7)CC6)CC5)nc4c3F)c12 (stereo not drawn) [Compound 91, 3-[5-[4-[[4-[[1-[2-[4-(3,8-diazabicyclo [3.2.1]octan-3-yl)-7-(8-ethynyl-7-fluoro-3-hydroxy-1-naphthyl)-8-fluoro-pyrido[4,3-d]pyrimidin-2-yl]oxyethyl]-4-fluoro-4-piperidyl]methyl]-1-piperidyl]methyl]-1-piperidyl]-1-oxo-isoindolin-2-yl]piperidine-2,6-dione] | < 5.1 | > 70
